# Measurements from patent US5616563A, “Glutathione N-hydroxycarbamoyl thioesters and method of inhibiting neoplastic growth” (University of Maryland Baltimore Campus, priority 1994, dated 1997).
# Like-named read-outs stand apart in the source and are kept apart here.
# Legend:
# human erythrocyte Glx I = molecular target: T1, human erythrocyte Glx I (Homo sapiens, UniProt Q04760); assay: Inhibition of human erythrocyte glyoxalase I; type: biochemical
# T1 construct: Human erythrocyte Glx I was purified to homogeneity from out-dated human blood; from tissue; host or cells: human erythrocytes (out-dated human blood)
# T1 sequence (Q04760 2-184 limits assumed): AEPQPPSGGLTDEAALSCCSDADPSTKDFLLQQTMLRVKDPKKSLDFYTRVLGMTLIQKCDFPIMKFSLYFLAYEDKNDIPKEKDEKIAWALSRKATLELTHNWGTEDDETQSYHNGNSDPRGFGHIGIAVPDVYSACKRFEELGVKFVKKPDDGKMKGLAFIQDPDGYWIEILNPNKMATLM
# [1] = test system: Human Leukemia 60 (HL60) cells; assay: Growth inhibition and kill of human leukemia 60 cells; type: cell-based; details: for LC50 (concentration for 50% cell kill) / TGI (concentration for total cell growth inhibition) / IC50: 72 hr. incubation; for IC50: read-out: GI (concentration for 50% cell growth inhibition)
# Procedure: The observation that compounds 2 and 6(c) inhibit tumor cell growth, but were not strongly cytotoxic to tumor cells at the concentrations tested, prompted the synthesis of diethyl esters of compounds 6(a), 6(b), and 6(c). These derivatives were then tested with human leukemia cells (HL60 cells) grown in RPMI/fetal calf serum medium at 37° C.
# ^c Concentration for 50% cell kill.
# [2] = test system: normal human VA-2 fibroblasts; assay: Toxicity to normal human fibroblasts; type: cell-based; details: VA-2 fibroblasts; 250 to 300 μM
# yeast Glx I [3] = molecular target: T2, yeast Glx I (Saccharomyces cerevisiae, UniProt P50107); assay: Inhibition of yeast glyoxalase I; type: biochemical
# T2 construct: purchased Sigma Chem. Co
# T2 sequence (P50107 1-326): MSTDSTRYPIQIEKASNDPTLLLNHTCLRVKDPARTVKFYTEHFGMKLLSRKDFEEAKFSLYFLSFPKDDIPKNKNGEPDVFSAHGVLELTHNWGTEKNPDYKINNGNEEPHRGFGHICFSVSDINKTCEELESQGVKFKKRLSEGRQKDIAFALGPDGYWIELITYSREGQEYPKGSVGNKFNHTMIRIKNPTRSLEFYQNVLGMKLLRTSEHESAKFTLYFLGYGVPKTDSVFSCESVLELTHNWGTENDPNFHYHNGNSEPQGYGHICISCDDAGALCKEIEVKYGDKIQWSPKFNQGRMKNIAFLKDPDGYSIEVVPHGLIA
# glyoxalase I = molecular target: T3, glyoxalase I (Saccharomyces cerevisiae, UniProt P50107); details: concentration of 50% inhibition of glyoxalase I; c = No inhibitory activity was detected; read-out: I50; cited from earlier work
# T3 sequence (P50107 1-326): T2 sequence (P50107 1-326)
# L1210 leukemia = details: concentration for 50% kill of the cell culture; cited from earlier work
# KB cells = details: concentration for 50% kill of the cell culture; cited from earlier work
# yeast Glx I [4] = molecular target: T2, yeast Glx I; details: Hamilton et al. 1992; cited from earlier work
# [5] = of substituent R; cited from earlier work
# Melanoma (UACC-62) = assay: NCI tumor cell growth inhibition, melanoma UACC-62; details: for IC50: UACC-62, 48 h, read-out: GI (concentration for 50% cell growth inhibition); for LC50 (concentration for 50% cell kill) / TGI (concentration for total cell growth inhibition): 48 hrs. incubation
# Source text: (§1) ^a Concentration for 50% cell growth inhibition versus nodrug
# (§2) ^b Concentration for total cell growth inhibition versus nodrug
# Renal Cancer (ACHN) = assay: NCI tumor cell growth inhibition, renal cancer ACHN; details: for LC50 (concentration for 50% cell kill) / TGI (concentration for total cell growth inhibition): 48 hrs. incubation; for IC50: 48 h, read-out: GI (concentration for 50% cell growth inhibition)
# Source text: as §1, §2
# CNS Cancer (SNB-75) = assay: NCI tumor cell growth inhibition, CNS cancer SNB-75; details: for inhibition of cell growth: CNS human cancer cells; for IC50: SNB-75, 48 h, read-out: GI (concentration for 50% cell growth inhibition); for LC50 (concentration for 50% cell kill) / TGI (concentration for total cell growth inhibition): SNB-75, 48 hrs. incubation
# Source text: as §1, §2
# Colon Cancer (KMZOLZ) = assay: NCI tumor cell growth inhibition, colon cancer KMZOLZ; details: for IC50: 48 h, read-out: GI (concentration for 50% cell growth inhibition); for LC50 (concentration for 50% cell kill) / TGI (concentration for total cell growth inhibition): KMZOLZ, 48 hrs. incubation
# Source text: as §1, §2
# Ovarian Cancer (SK-OV-3) = assay: NCI tumor cell growth inhibition, ovarian cancer SK-OV-3; details: for IC50: SK-OV-3, 48 h, read-out: GI (concentration for 50% cell growth inhibition); for LC50 (concentration for 50% cell kill) / TGI (concentration for total cell growth inhibition): 48 hrs. incubation
# Source text: as §1, §2
# [6] = molecular target: bovine liver glyoxalase II (Bos taurus, UniProt Q3B7M2); assay: Substrate and inhibition studies with bovine liver glyoxalase II; details: for Vm (rel.): relative to Vm for S-D-lactoylglutathione, HEPES buffer (100 mM, pH 7.4), 25° C.
# Procedure: The standard errors for Vm and Km were obtained by analysis of the initial rate data using the HYPER program of Cleland.
# ^a HEPES buffer (100 mM, pH 7.4), 25° C.
# ^b Listed values are relative to Vm for SD-lactoylglutathione.
# ^c Inhibition constants obtained from using the enediol analogs as
# [7] = test system: Non-Small Cell Lung Cancer (HOP-18); assay: NCI tumor cell growth inhibition, non-small cell lung cancer HOP-18; details: for LC50 (concentration for 50% cell kill) / TGI (concentration for total cell growth inhibition): 48 hrs. incubation; for IC50: HOP-18, 48 h, read-out: GI (concentration for 50% cell growth inhibition)
# Source text: as §1, §2
# [8] = Homo sapiens, UACC-62, read-out: inhibition of cell growth
# [9] = Homo sapiens, read-out: inhibition of cell growth
# [10] = Homo sapiens, SNB-75, read-out: inhibition of cell growth
# [11] = Homo sapiens, SK-OV-3, read-out: inhibition of cell growth
# [12] = Homo sapiens, HOP-18, read-out: cell growth inhibition
smiles,measurement,setting,value
CCOC(=O)CNC(=O)[C@H](CSC(=O)N(O)c1ccccc1)NC(=O)CC[C@H](N)C(=O)OCC [6a(Et)2],Ki,"human erythrocyte Glx I; Table 7, read-out: Ki (competitive inhibition constants with human erythrocyte glyoxalase I)",> 1000 µM
same,cell killing,"[1]; HL60, 250 to 300 μM",about 100%
same,LC50 (concentration for 50% cell kill),[1]; HL60,200 µM
same,TGI (concentration for total cell growth inhibition),[1]; HL60,126 µM
same,IC50,[1]; HL60,63 µM
same,toxicity versus corresponding unethylated species,"[1]; HL60 cells, RPMI/fetal calf serum medium, 37° C.",more toxic
same,inhibition of cell growth,[2],50-80%
"CN(O)C(=O)SC[C@H](NC(=O)CC[C@H](N)C(=O)O)C(=O)NCC(=O)O [Compound 2, S-(N-Hydroxy N-Methyl Carbamoyl) Glutathione]",binding energy difference versus deoxy analog 2(a),yeast Glx I [3],about 2.6 Kcal/mole
same,binds more tightly to active site of Glx I than deoxy analog 2(a),yeast Glx I [3],80 fold
same,binds more tightly to yeast Glx I than S-D-lactoylglutathione,yeast Glx I [3],over 30 fold
same,Ki,yeast Glx I [3]; read-out: Ki yeast Glx I,68 µM
same,Ki,"human erythrocyte Glx I; Phosphate buffer (50 mM, pH 7), 25° C., read-out: Ki Erythrocytes",1.95 ± 0.21 µM
same,IC50,glyoxalase I,9 µM
same,LD50 (L1210),L1210 leukemia,> 0.20 mM
same,LD50 (KB),KB cells,0.11 mM
same,higher affinity of the enzyme versus glycyl-ethyl ester 2(Et),yeast Glx I [4],10 fold
same,π (Hansch hydrophobicity constant),[5],0.5
same,IC50,Melanoma (UACC-62); Homo sapiens,> 1000 µM
same,inhibition at 1000 µM,Melanoma (UACC-62); [8],30%
same,effect on cell growth,"Melanoma (UACC-62); UACC-62, 10^-4 or lower",ineffective
same,LC50 (concentration for 50% cell kill),Melanoma (UACC-62); UACC-62,> 1000 µM
same,TGI (concentration for total cell growth inhibition),Melanoma (UACC-62); UACC-62,> 1000 µM
same,LC50 (concentration for 50% cell kill),Renal Cancer (ACHN),> 1000 µM
same,TGI (concentration for total cell growth inhibition),Renal Cancer (ACHN),> 1000 µM
same,IC50,Renal Cancer (ACHN); Homo sapiens,> 1000 µM
same,inhibition at 1000 µM,Renal Cancer (ACHN); [9],~40%
same,effect on cell growth,Renal Cancer (ACHN); concentrations lower than 10^-3 M,no significant effect
same,inhibition of cell growth,CNS Cancer (SNB-75); 10^-4 M or lower,less than 10%
same,IC50,CNS Cancer (SNB-75); Homo sapiens,630 µM
same,inhibition at 1000 µM,CNS Cancer (SNB-75); [10],60%
same,LC50 (concentration for 50% cell kill),CNS Cancer (SNB-75),> 1000 µM
same,TGI (concentration for total cell growth inhibition),CNS Cancer (SNB-75),> 1000 µM
same,IC50,Colon Cancer (KMZOLZ); Homo sapiens,> 1000 µM
same,inhibition of cell growth,"Colon Cancer (KMZOLZ); KMZOL2, ""At this concentration"" (printed after 10^-4 and below)",< 30%
same,effect on cell growth,"Colon Cancer (KMZOLZ); KMZOL2, concentrations of 10^-4 and below",no significant effect
same,LC50 (concentration for 50% cell kill),Colon Cancer (KMZOLZ),> 1000 µM
same,TGI (concentration for total cell growth inhibition),Colon Cancer (KMZOLZ),> 1000 µM
same,IC50,Ovarian Cancer (SK-OV-3); Homo sapiens,316 µM
same,inhibition at 100 µM,Ovarian Cancer (SK-OV-3); [11],20%
same,inhibition at 1000 µM,Ovarian Cancer (SK-OV-3); [11],> 90%
same,LC50 (concentration for 50% cell kill),Ovarian Cancer (SK-OV-3); SK-OV-3,> 1000 µM
same,TGI (concentration for total cell growth inhibition),Ovarian Cancer (SK-OV-3); SK-OV-3,~ 1000 μM
same,Ki,[6],426 ± 77 µM
same,Vm (rel.),[6],(1.7 ± 0.1) × 10^-5
same,LC50 (concentration for 50% cell kill),[7]; HOP-18,> 1000 µM
same,TGI (concentration for total cell growth inhibition),[7]; HOP-18,> 1000 µM
same,IC50,[7]; Homo sapiens,630 µM
same,inhibition at 1000 µM,[7]; [12],> 65%
"N[C@@H](CCC(=O)N[C@@H](CSC(=O)N(O)c1ccc(Br)cc1)C(=O)NCC(=O)O)C(=O)O [Compound 6c, S-(N-Hydroxy-N-4-bromophenylcarbamoyl) glutathione]",LC50 (concentration for 50% cell kill),[1]; HL60,~ 300 μM
same,TGI (concentration for total cell growth inhibition),[1]; HL60,63 µM
same,IC50,"[1]; Homo sapiens, HL-60, HL60",20 µM
same,π (Hansch hydrophobicity constant),[5],3.25
same,IC50,Melanoma (UACC-62); Homo sapiens,126 µM
same,inhibition at 10 µM,Melanoma (UACC-62); [8],~20%
same,inhibition at 100 µM,Melanoma (UACC-62); [8],50%
same,inhibition of cell growth,"Melanoma (UACC-62); UACC-62, 10^-6 M and lower concentrations",minimal inhibition
same,LC50 (concentration for 50% cell kill),Melanoma (UACC-62); UACC-62,> 1000 µM
same,TGI (concentration for total cell growth inhibition),Melanoma (UACC-62); UACC-62,> 1000 µM
same,LC50 (concentration for 50% cell kill),Renal Cancer (ACHN),> 1000 µM
same,TGI (concentration for total cell growth inhibition),Renal Cancer (ACHN),~ 200 μM
same,IC50,Renal Cancer (ACHN); Homo sapiens,25 µM
same,inhibition at 10 µM,Renal Cancer (ACHN); [9],30%
same,inhibition at 100 µM,Renal Cancer (ACHN); [9],~95%
same,inhibition of cell growth,CNS Cancer (SNB-75); 10^-6 M and 10^-5 M,about 20%
same,IC50,CNS Cancer (SNB-75); Homo sapiens,63 µM
same,inhibition at 100 µM,CNS Cancer (SNB-75); [10],60%
same,LC50 (concentration for 50% cell kill),CNS Cancer (SNB-75),> 1000 µM
same,TGI (concentration for total cell growth inhibition),CNS Cancer (SNB-75),~ 1000 μM
same,IC50,Colon Cancer (KMZOLZ); Homo sapiens,40 µM
same,inhibition at 100 µM,Colon Cancer (KMZOLZ); [9],80%
same,inhibition of cell growth,"Colon Cancer (KMZOLZ); KMZOL2, 10^-6 and 10^-5",about 10%
same,LC50 (concentration for 50% cell kill),Colon Cancer (KMZOLZ),> 1000 µM
same,TGI (concentration for total cell growth inhibition),Colon Cancer (KMZOLZ),~ 320 μM
same,IC50,Ovarian Cancer (SK-OV-3); Homo sapiens,32 µM
same,inhibition at 1 µM,Ovarian Cancer (SK-OV-3); [11],~40%
same,inhibition at 100 µM,Ovarian Cancer (SK-OV-3); [11],> 80%
same,inhibition of cell growth,"Ovarian Cancer (SK-OV-3); SK-OV-3, 10^-5",about 30%
same,LC50 (concentration for 50% cell kill),Ovarian Cancer (SK-OV-3); SK-OV-3,> 1000 µM
same,TGI (concentration for total cell growth inhibition),Ovarian Cancer (SK-OV-3); SK-OV-3,~ 250 μM
same,Ki,[6],1.2 ± 0.4 µM
same,Vm (rel.),[6],(2.1 ± 0.4) × 10^-5
same,cell growth inhibition,"[7]; HOP-18, 10^-6 to 10^-5 M",about 15%
same,LC50 (concentration for 50% cell kill),[7]; HOP-18,> 1000 µM
same,TGI (concentration for total cell growth inhibition),[7]; HOP-18,~ 250 μM
same,IC50,[7]; Homo sapiens,40 µM
same,inhibition at 100 µM,[7]; [12],~80%
